Test results published in patent US20230074252A1, “DOSAGES AND METHODS FOR TREATING PULMONARY ARTERIAL HYPERTENSION WITH RODATRISTAT” (Altavant Sciences GmbH, priority 2020, published 2023).
Like-named read-outs stand apart in the source and are kept apart here.

Columns and labels:
CYP3A4/5 = CYP3A4/5 (Homo sapiens, UniProt P08684); assay: Direct and time-dependent CYP inhibition, pooled human liver microsomes; type: in vitro ADME
Procedure: (§1) “mM^”=millimolar. CYP induction was evaluated using cultured human hepatocytes (from 3 donors) treated once daily for 3 days with RE/R concentrations to […].
(§2) The competitive inhibition of specific CYP isoforms was investigated for RVT-1201 and KAR5417 in human liver microsomes (HLM) (XT155056). Of the […] evaluated in vitro (CYP1A2, CYP2B6, CYP2C8, CYP2C9, CYP2D6, CYP3A4, CYP3A5), RVT-1201 IC50 estimates were determined for CYP2B6, CYP2C8 and CYP3A4 only. […] For each IC50 estimate, substrate concentration and Km were used to estimate RVT-1201 and KAR5417 Ki.

CYP2B6 [1] = molecular target: T1, CYP2B6 (Homo sapiens, UniProt P20813); assay: In vitro CYP substrate assessment (victim potential); type: in vitro ADME
T1 sequence (P20813 1-491): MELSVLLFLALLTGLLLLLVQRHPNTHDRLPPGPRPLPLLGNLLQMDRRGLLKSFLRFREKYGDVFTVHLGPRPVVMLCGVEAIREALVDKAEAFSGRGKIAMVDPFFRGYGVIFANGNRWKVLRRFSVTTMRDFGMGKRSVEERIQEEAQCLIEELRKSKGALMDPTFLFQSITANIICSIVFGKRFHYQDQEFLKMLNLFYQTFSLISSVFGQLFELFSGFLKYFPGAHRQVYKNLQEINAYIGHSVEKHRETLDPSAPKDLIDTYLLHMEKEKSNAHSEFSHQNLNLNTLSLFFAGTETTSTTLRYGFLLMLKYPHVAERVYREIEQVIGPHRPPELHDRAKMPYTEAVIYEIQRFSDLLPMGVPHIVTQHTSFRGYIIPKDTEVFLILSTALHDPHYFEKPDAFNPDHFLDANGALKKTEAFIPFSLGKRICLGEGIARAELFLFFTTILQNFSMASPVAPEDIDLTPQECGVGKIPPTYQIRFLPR

OATP1B1 = molecular target: T2, OATP1B1 (Homo sapiens, UniProt Q9Y6L6); assay: In vitro transporter substrate assessment; type: in vitro ADME
T2 construct: expressed in transfected cells; host or cells: HEK293
T2 sequence (Q9Y6L6 1-691): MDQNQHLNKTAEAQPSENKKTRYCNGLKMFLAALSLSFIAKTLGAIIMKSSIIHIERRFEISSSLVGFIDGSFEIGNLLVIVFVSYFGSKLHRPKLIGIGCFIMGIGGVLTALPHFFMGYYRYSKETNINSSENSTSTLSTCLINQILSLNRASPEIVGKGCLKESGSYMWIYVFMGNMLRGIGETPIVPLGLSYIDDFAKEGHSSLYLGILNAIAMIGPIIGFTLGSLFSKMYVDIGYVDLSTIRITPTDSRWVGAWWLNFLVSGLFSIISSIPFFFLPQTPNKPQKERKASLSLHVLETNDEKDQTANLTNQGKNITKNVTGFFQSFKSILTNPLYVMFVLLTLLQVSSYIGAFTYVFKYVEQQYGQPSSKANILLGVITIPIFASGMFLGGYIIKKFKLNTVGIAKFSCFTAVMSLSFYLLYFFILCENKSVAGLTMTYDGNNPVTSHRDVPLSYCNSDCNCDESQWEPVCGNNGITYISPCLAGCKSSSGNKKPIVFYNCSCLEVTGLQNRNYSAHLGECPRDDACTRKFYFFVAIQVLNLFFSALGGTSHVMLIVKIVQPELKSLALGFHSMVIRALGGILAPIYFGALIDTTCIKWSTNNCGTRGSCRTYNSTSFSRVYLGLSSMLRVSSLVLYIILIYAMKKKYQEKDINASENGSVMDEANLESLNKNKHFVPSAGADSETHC

[2] = Clinical pharmacokinetics in healthy subjects (Studies RVT-1201-1001 and KAR5585-101); type: in vivo, human
Procedure: Clinical Study RVT-1201-1001 was a single and repeat dose study of RVT-1201 in healthy subjects to evaluate the pharmacokinetic profile of RVT-1201 and its active metabolite KAR5417. In Part 1 of this study, a single oral dose of 400 mg RVT-120 was administered as an oral powder in Regimen A and B, and as immediate release tablets in Regimen C, to 9 healthy male subjects. In addition, a single 1200 mg dose as immediate release tablets was administered in Regimen D.
Following oral administration in the fed state, RVT-1201 was well absorbed and peak plasma levels were achieved after a median time of 2.5 h. […] The planned clinical dose schedule of RVT-1201 in ELEVATE2 is up to 600 mg BID. […] The geometric mean apparent clearance was 900 L/h after oral administration in Regimen C of Clinical Study RVT-1201-1001. Elimination of RVT-1201 was rapid, and primarily facilitated by hydrolysis to KAR5417. Formation of KAR5417 was attributed to de-esterification of RVT-1201.
KAR5417 is rapidly formed after oral administration of RVT-1201.
Data from two clinical studies were used to verify the PBPK model (Clinical Study KAR5585-101 and Clinical Study RVT-1201-1001). Clinical Study KAR5585-101 was a randomized, double blind, placebo-controlled, Phase 1, first-in-human study to characterize the pharmacokinetics of single and multiple ascending doses of RVT-1201 in healthy subjects. RVT-1201 and KAR5417 plasma concentration data on Day 1, 7 and 14 of 400 mg BID administration in fed subjects were used to support verification of the PBPK model. In addition, multiple dose RVT-1201 and KAR5417 plasma concentration data on Day 1, 7 and 14 of 400 mg or 800 mg BID administration in fed subjects in Clinical Study RVT-1201-1001 were also used to support model verification.

CYP2B6 [3] = molecular target: T1, CYP2B6; assay: Direct and time-dependent CYP inhibition, pooled human liver microsomes; type: in vitro ADME; parameters: from tissue; host or cells: pooled human liver microsomes (n=200 donors); conditions: for IC50: human liver microsomes, read-out: In vitro IC50, direct inhibition, CYP2B6
Procedure: as §1, §2

[4] = predicted @ 600 mg BID, testosterone
[5] = human, pooled human liver microsomes, 30 μM, range given across CYPs 2B6, 2C9 and 3A4/5

CYP3A4/5, sequence (P08684 2-503): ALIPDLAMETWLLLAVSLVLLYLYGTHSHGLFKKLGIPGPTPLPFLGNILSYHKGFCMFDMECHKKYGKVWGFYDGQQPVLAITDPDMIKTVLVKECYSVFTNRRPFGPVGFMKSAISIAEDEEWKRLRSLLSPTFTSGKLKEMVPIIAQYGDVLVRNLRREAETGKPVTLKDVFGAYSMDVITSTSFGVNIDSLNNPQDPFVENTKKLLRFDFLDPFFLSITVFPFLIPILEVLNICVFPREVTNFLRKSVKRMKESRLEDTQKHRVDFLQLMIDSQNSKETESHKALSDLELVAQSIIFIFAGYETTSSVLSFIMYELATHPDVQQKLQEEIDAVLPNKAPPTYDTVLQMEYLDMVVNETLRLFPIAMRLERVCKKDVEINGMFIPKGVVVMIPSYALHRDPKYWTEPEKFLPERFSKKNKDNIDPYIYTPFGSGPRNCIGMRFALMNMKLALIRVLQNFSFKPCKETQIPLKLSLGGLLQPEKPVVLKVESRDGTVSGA

SMILES	IC50 (CYP3A4/5; human, pooled human liver microsomes, probe midazolam (1′ hydroxylation), midazolam 1′ hydroxylation, read-out: In vitro IC50, direct inhibition, CYP3A4) [µM]	IC50 (CYP3A4/5; human, pooled human liver microsomes, probe testosterone (6β hydroxylation), testosterone 6β hydroxylation, read-out: In vitro IC50, direct inhibition, CYP3A4 (T)) [µM]	Calculated R1 Value, CYP3A4 (T) (CYP3A4/5; [4])	R1gut, CYP3A4 (T) (CYP3A4/5; [4])	In vitro substrate? CYP2B6 (CYP2B6 [1])	In vitro substrate? OATP1B1 (OATP1B1)	half-life ([2]; human, plasma, oral, 400 mg BID dosing, read-out: Average geometric mean plasma terminal t1/2 (converted)) [min]	Geometric mean apparent clearance ([2]; oral, Regimen C (400 mg single dose, fed)) [L/h]	Median time to peak plasma levels ([2]; oral, fed state, healthy subjects) [h]	Accumulation after multiple dosing ([2]; twice daily schedule, up to 600 mg BID, expected) [fold]	IC50 (CYP2B6 [3]) [µM]	Calculated R1 Value, CYP2B6 (CYP2B6 [3]; predicted @ 600 mg BID, R1=1+(Imax,unbound/Ki))	inhibition at 30 µM (CYP3A4/5; [5]) [%]	IC50 (CYP3A4/5; human, pooled human liver microsomes, probe substrate not stated, read-out: IC50, CYP3A4/5) [µM]	Accumulation by OATP1B1 uptake transporter (OATP1B1; 3 μM) [fold]	Cmax greater than the Cmax of RVT-1201 ([2]; Regimen C, 400 mg single dose of RVT-1201)	half-life ([2]; male, human, plasma, 400 mg, after oral RVT-1201, Regimen C, read-out: Geometric mean plasma terminal t1/2 (converted)) [min]	Cmax ([2]; male, human, plasma, oral, Regimen C, 400 mg single dose of RVT-1201, read-out: Geometric mean Cmax) [ng/mL]	Tmax ([2]; male, human, plasma, oral, Regimen C, 400 mg single dose of RVT-1201, read-out: Median Tmax) [h]	inhibition at 30 µM (CYP2B6 [3]; [5]) [%]
CCOC(=O)[C@@H]1CC2(CCN(c3cc(O[C@H](c4ccc(Cl)cc4-c4ccccc4)C(F)(F)F)nc(N)n3)CC2)CN1 [Rodatristat ethyl, (S)-ethyl 8-(2-amino-6-((R)-1-(5-chloro-[1,1′-biphenyl]-2-yl)-2,2,2-trifluoroethoxy)pyrimidin-4-yl)-2,8-diazaspiro[4.5]decane-3-carboxylate]	13	23	<1.02	R1gut = 355	No	not a substrate and No	312	900	2.5	< 1.5	13	<1.02	–	–	–	–	–	–	–	–
Nc1nc(O[C@H](c2ccc(Cl)cc2-c2ccccc2)C(F)(F)F)cc(N2CCC3(CC2)CN[C@H](C(=O)O)C3)n1 [Rodatristat, (S)-8-(2-amino-6-((R)-1-(5-chloro-[1,1′-biphenyl]-2-yl)-2,2,2-trifluoroeth-oxy)pyrimidin-4-yl)-2,8-diazaspiro[4.5]decane-3-carboxylic acid]	–	–	–	–	No	is an in vitro substrate and Yes	–	–	–	–	> 30	–	27 to 45	> 30	2.22	approximately 5 fold	738	517	3.5	27 to 45
